Source: patent US4352928A, “5,6-Alkylenepyrimidine derivative” (Mitsubishi Yuka Pharmaceutical Co., Ltd., priority 1979, dated 1982)
Like-named read-outs stand apart in the source and are kept apart here.

Key:
inflammation = assay: Anti-Inflammatory Effect (carrageenan-induced swelling of the hind foot); format: in vivo, Wister male rat; conditions: po, rat, 3 hours after carrageenan, read-out: Suppressive Ratio; for inhibition in vivo at 50 mg/kg: 50 mg/kg p.o.
Description: A Wister male rat having the weight ranging from 120 to 150 g. was starved for 18 hours, and to this was then orally administered the test sample. After lapse of one hour, 0.05 ml. of 1% solution of carrageenan was administered through subcutaneous injection in the plantar surface of the right hind foot to produce inflammation. The volume of the right hind foot was measured prior to the injection of carrageenan and again at 3 hours after the administration through injection. The ratio of the increase of the foot volume was calculated to express in percent based on the measured values. The so calculated ratio was compared with the calculated ratio on the control data to give the dropsical swelling suppressive ratio.

[1] = system: Blood Platelet Aggregation; assay: Blood Platelet Aggregation Suppressive Effect (collagen-induced, platelet rich plasma); format: cell-based, rabbit; conditions: Oryctolagus cuniculus, 2 min, read-out: Suppressive Ratio
Description: A rabbit was starved for 18 hours, and the veinal blood was taken from the carotid artery of the rabbit. […] The mixture was centrifuged at 200 G for 15 minutes to collect the platelet rich plasma (PRP). The residual portion was further centrifuged at 2000 G for 15 minutes to collect the platelet poor plasma (PPP). Subsequently, 250 μl. of the PRP was placed in a cuvette, and the methanol solution containing the test sample of the concentration set forth in Table 4 was added. Incubation was carried out for 2 minutes, and a collagen solution was added to the incubated solution to result in the final concentration of 3 μg./ml. so as to induce aggregation. The condition of the aggregation was measured in the Aggregation Meter (available from Shenco Co., Ltd.) and recorded.
The suppressive ratio was calculated based on the following equation. [formula] A: Maximum aggregation ratio observed when a solvent only was added. B: Maximum aggregation ratio observed when the test sample was added.

blood sugar level = assay: Blood Sugar Level Lowering Effect (2-deoxy-D-glucose induced high blood sugar level); format: in vivo, ICR-JCL mouse, male; conditions: po, mouse, 1 hour after 2-deoxy-D-glucose 500 mg/kg, read-out: Suppressive Ratio; for inhibition in vivo at 30 mg/kg: 30 mg/kg p.o.
Description: To a ICR-JCL mouse, male, having the weight ranging from 25 to 30 g. was orally administered the test sample and, after 15 minutes, 2-deoxy-D-glucose was administered into the cavity of the mouse in the amount of 500 mg/kg to induce a high blood sugar level. The blood was taken after 1 hour, and the blood sugar concentration was determined in the blood serum obtained upon centrifugation, by means of a commercially available test kit (trade name: Glucomesser, produced by Tokyo Zooki Kagaku Co., Ltd., Japan). The suppressive ratio was calculated based on the following equation. [formula] A: Blood sugar level of the positive control group B: Blood sugar level of the negative control group
C: Blood sugar level of the test sample administered group

[2] = Biochem. & Biophys. Res. Commu., 34, 495 (1969); cited from earlier work
[3] = Japanese Patent Provisional Publication No. 35-12079/1960; cited from earlier work
[4] = Japanese Patent Provisional Publication No. 35-12079/1960; cited from earlier work; remark: listed apart in the source
blood pressure = assay: Anti-Hypertensive Effect (spontaneously hipertensive rat); format: in vivo, male; conditions: SHR
Description: To a spontaneously hipertensive rat (SHR), male, aged 20-30 weeks, blood pressure under contraction 150 mmHg. was orally administered the test sample. The mean blood pressure of the rat was measured under non-anesthetic conditions at 1, 3, 6 and 24 hours after the administration via cannula inserted into the main artery in the abdomen.

ICR-JCL mouse = assay: Acute Toxicity on Mouse; design: species or system male; conditions: in vivo, po
Description: A ICR-JCL mouse, male, was starved for 18 hours, and to the mouse was orally administered the test sample suspended in 1% tragacantha solution. The condition was observed during one week after the administration and the LD50 was calculated.

[5] = 100 μM, rabbit PRP, collagen 3 μg/ml

**Q.** With Nc1nc(N2CCN(C(=S)Nc3ccccc3)CC2)nc2c1CCCC2 [compound 23, 2-(Phenylthiocarbamoylpiperazino)-4-amino-5,6-tetramethylenepyrimidine] as the molecule, how does the inhibition in vivo at 50 mg/kg (inflammation) read?
**A.** 23.9%

**Q.** With OCCNc1nc(N2CCNCC2)nc2c1CCCC2 [compound 51, 2-Piperazino-4-(2-hydroxyethyl)amino-5,6-tetramethylenepyrimidine] as the molecule, how does the inhibition at 100 µM [1, 5] read?
**A.** 89.1%

**Q.** For O=CN1CCN(c2nc3c(c(N4CCOCC4)n2)CCCC3)CC1 [compound 47, 2-(4-Formylpiperazino)-4-morpholino-5,6-tetramethylenepyrimidine], which inhibition at 30 µM ([1]; rabbit PRP, collagen 3 μg/ml) is on record?
**A.** 100%

**Q.** With CN(C)c1nc(N2CCNCC2)nc2c1CCCC2 [compound 41, 2-Piperazino-4-dimethylamino-5,6-tetramethylenepyrimidine] as the molecule, how does the inhibition in vivo at 30 mg/kg (blood sugar level) read?
**A.** 50.8%

**Q.** For Nc1nc(N)c2c(n1)CCCC2 [2,4-diamino-5,6-tetramethylenepyrimidine], which antagonism against pteridine [2] is on record?
**A.** has antagonism against pteridine

**Q.** What about the antibacterial activity [3] of the same molecule?
**A.** antibacterial activity

**Q.** What about the carcinostatic effect [4] of the same molecule?
**A.** has a carcinostatic effect

**Q.** With CN1CCN(c2nc3c(c(N4CCCC4)n2)CCCC3)CC1 [compound 46, 2-(4-Methylpiperazino)-4-pyrrolidino-5,6-tetramethylenepyrimidine] as the molecule, how does the inhibition at 30 µM ([1]; rabbit PRP, collagen 3 μg/ml) read?
**A.** 100%

**Q.** Which “Change of Blood Pressure at 3 Hours after Administration” value (blood pressure; 50 mg/kg p.o.) does the source give for Nc1nc(N2CCN(C(=O)C=Cc3ccccc3[N+](=O)[O-])CC2)nc2c1CCCC2 [compound 11, 2-[4-(2-Nitrocinnamoyl)piperazino]-4-amino-5,6-tetramethylenepyrimidine] here?
**A.** -17 mmHg.

**Q.** What does the source list for CN1CCN(c2nc3c(c(N4CCOCC4)n2)CCCC3)CC1 [compound 49, 2-(4-Methylpiperazino)-4-morpholino-5,6-tetramethylenepyrimidine]?
**A.** LD50 (ICR-JCL mouse): > 500 mg/kg; inhibition at 30 µM ([1]; rabbit PRP, collagen 3 μg/ml): 95.2%

**Q.** With CNc1nc(N2CCNCC2)nc2c1CCCC2 [Compound No. 35, 2-Piperazino-4-methylamino-5,6-tetramethylenepyrimidine] as the molecule, how does the inhibition in vivo at 30 mg/kg (blood sugar level) read?
**A.** 77.4%

**Q.** What about the inhibition at 100 µM [1, 5] of the same molecule?
**A.** 87.7%

**Q.** Which inhibition in vivo at 50 mg/kg (inflammation) does the source give for Nc1nc(N2CCN(C(=O)C=Cc3ccccc3)CC2)nc2c1CCCC2 [Compound No. 10, 2-(4-Cinnamoylpiperazino)-4-amino-5,6-tetramethylenepyrimidine] here?
**A.** 79.9%

**Q.** And the “Change of Blood Pressure at 3 Hours after Administration” value (blood pressure; 25 mg/kg p.o.)?
**A.** -22 mmHg.

**Q.** For Nc1nc(N2CCNCC2)nc2c1CCCCC2 [Compound No. 63, 2-Piperazino-4-amino-5,6-pentamethylenepyrimidine], which inhibition in vivo at 30 mg/kg (blood sugar level) is on record?
**A.** 78.9%

**Q.** Which inhibition in vivo at 50 mg/kg (inflammation) does the source give for Nc1nc(N2CCN(c3ccccc3)CC2)nc2c1CCCC2 [compound 28, 2-(4-Phenylpiperazino)-4-amino-5,6-tetramethylenepyrimidine] here?
**A.** 52.7%

**Q.** What does the source list for Nc1nc(N2CCN(c3ccc(Cl)cc3)CC2)nc2c1CCCC2 [compound 29, 2-[4-(4-Chlorophenyl)piperazino]-4-amino-5,6-tetramethylenepyrimidine]?
**A.** inhibition in vivo at 50 mg/kg (inflammation): 46.8%; inhibition in vivo at 10 mg/kg (blood sugar level; 10 mg/kg p.o.): 49.1%

**Q.** What does the source list for Nc1nc(N2CCNCC2)nc2c1CCCC2 [Compound No. 1, 2-Piperazino-4-amino-5,6-tetramethylenepyrimidine]?
**A.** inhibition in vivo at 30 mg/kg (blood sugar level): 67.8%; inhibition at 100 µM [1, 5]: 100%

**Q.** For C1CCc2c(nc(N3CCNCC3)nc2N2CCCC2)C1 [compound 45, 2-Piperazino-4-pyrrolidino-5,6-tetramethylenepyrimidine], which inhibition at 30 µM ([1]; rabbit PRP, collagen 3 μg/ml) is on record?
**A.** 72%

**Q.** For Nc1nc(N2CCNCC2)nc2c1CCC2 [Compound No. 54, 2-Piperazino-4-amino-5,6-trimethylenepyrimidine], which inhibition in vivo at 30 mg/kg (blood sugar level) is on record?
**A.** 107%

**Q.** Which results are given for Nc1nc(N2CCN(C(=O)Nc3ccccc3)CC2)nc2c1CCCC2 [Compound No. 18, 2-(4-Phenylcarbamoylpiperazino)-4-amino-5,6-tetramethylenepyrimidine]?
**A.** inhibition in vivo at 50 mg/kg (inflammation): 33.8%; Change of Blood Pressure at 3 Hours after Administration (blood pressure; 50 mg/kg p.o.): -17 mmHg.

**Q.** Which inhibition in vivo at 25 mg/kg (inflammation; 25 mg/kg p.o.) does the source give for Nc1nc(N2CCN(C(=O)C=Cc3ccco3)CC2)nc2c1CCCC2 [Compound No. 14, 2-[4-{3-(Furan-2-yl)acryloyl}piperazino]-4-amino-5,6-tetramethylenepyrimidine] here?
**A.** 53.9%

**Q.** And the inhibition in vivo at 30 mg/kg (blood sugar level)?
**A.** 60.2%

**Q.** Which inhibition in vivo at 30 mg/kg (blood sugar level) does the source give for Nc1nc(N2CCN(Cc3ccccc3)CC2)nc2c1CCC2 [Compound No. 56, 2-(4-Benzylpiperazino)-4-amino-5,6-trimethylenepyrimidine] here?
**A.** 44.5%

**Q.** For C=CCN1CCN(c2nc(N)c3c(n2)CCCC3)CC1 [Compound No. 4, 2-(4-Allylpiperazino)-4-amino-5,6-tetramethylenepyrimidine], which inhibition in vivo at 50 mg/kg (inflammation) is on record?
**A.** 51.2%

**Q.** For Nc1nc(N2CCN(Cc3ccccc3)CC2)nc2c1CCCC2 [Compound No. 3, 2-(4-Benzylpiperazino)-4-amino-5,6-tetramethylenepyrimidine], which inhibition in vivo at 50 mg/kg (inflammation) is on record?
**A.** 46%

**Q.** What does the source list for Nc1nc(N2CCN(c3ccccn3)CC2)nc2c1CCCC2 [Compound No. 32, 2-[4-(2-Pyridyl)piperazino]-4-amino-5,6-tetramethylenepyrimidine]?
**A.** Change of Blood Pressure at 3 Hours after Administration (blood pressure; 50 mg/kg p.o.): -18 mmHg.; inhibition in vivo at 30 mg/kg (blood sugar level): 60.1%

**Q.** With CC(=O)Oc1ccccc1C(=O)O [Aspirin, reference compound] as the molecule, how does the inhibition at 100 µM [1] read?
**A.** 100%

**Q.** What does the source list for C1CCc2c(nc(N3CCNCC3)nc2N2CCOCC2)C1 [compound 48, 2-Piperazino-4-morpholino-5,6-tetramethylenepyrimidine]?
**A.** inhibition in vivo at 30 mg/kg (blood sugar level): 95.9%; inhibition at 30 µM ([1]; rabbit PRP, collagen 3 μg/ml): 46%
